Measurements taken from patent US6943190B2, “Method of using pyruvate and/or its derivatives for the treatment of cytokine-mediated inflammatory conditions” (University of Pittsburgh-of the Commonwealth System of …, priority 2001, dated 2005).

Experiments:
TNF [1] = assay: Serum TNF in endotoxemic mice (ELISA); format: in vivo, Balb/C mice; details: 2 hours after LPS
Procedure: (§1) Endotoxin shock. Mice were injected with endotoxin (Escherichia coli lipopolysaccharide, LPS 0111:B4; Sigma Chemical Co, St. Louis, Mo.) that was dissolved in sterile pyrogen-free saline at stock concentrations of 10 mg/ml. LPS solutions were sonicated for 20 min immediately prior to use for each experiment. Mice received an LD75 dose of LPS (5 mg/kg, i.p.). Blood was collected at different times after LPS administration, allowed to clot for 2 h at room temperature, then centrifuged for 20 min at 1,500 g. Serum samples were stored at […] prior to analysis. Mortality was recorded for up to 3 weeks after injection to ensure that no additional late deaths occurred.
(§2) Cytokine measurements. TNF concentration in mouse serum and in conditioned media from RAW 264.7 cell cultures was measured by ELISA (minimum detectable concentration=10 pg/ml). […] Mouse serum IL-6 and IL-1β levels were measured using ELISA kits (R&D Systems, Inc., Minneapolis, Minn.). HMGB-1 was analyzed by western blot as previously described by Wang et al, 1999. […] Protein was electroblotting to Immun-blot PVDF membrane (Bio-rad, Hercules Calif.) and HMGB-1 was analyzed using polyclonal 241 antibody and secondary anti-rabbit horseradish peroxidase (Amersham, Pitscataway, N.J.). Standard curves were constructed using r-HMGB-1, and the intensity of the 30 kD band analyzed by densitometry. […]

TNF [2] = assay: TNF release by LPS-stimulated RAW 264.7 macrophage cultures (ELISA); format: cell-based, murine
Procedure: Cell Culture. BALB/c murine macrophage-like RAW 264.7 cells obtained from the American Type Culture Collection (ATCC Number TIB-71, ATCC, Rockville, Mass.) (61), were cultured in RPMI 1640 (Life Technologies, Grand Island, N.Y.) supplemented with 10% heat inactivated fetal bovine serum (Gemini, Calabasas, Calif.), 2 mM glutamine (Cat. # 25030-149, Gibco BRL, Rockville, Mass.) and antibiotic-antimycotic mix (Cat. # 15240-062, Gibco BRL, Rockville, Mass.) in a humidified incubator with 5% CO2. Cells were mechanically removed and resuspended in serum-free Opti-MEM I medium (Life Technology, Grand Island, N.Y.) to perform experiments at 75% confluence.
as §2

[3] = tested on: lethal sepsis caused by peritonitis (cecal perforation); assay: Cecal ligation and puncture (CLP) peritonitis/sepsis: survival; format: in vivo, Balb/C mice
Procedure: (§3) Animal Experiments. Male 6-8 week old Balb/C mice (20-25 g) were purchased from Harlen Sprague-Dawley (Indianapolis, Ind.) and allowed to acclimate for 7 days housed at 25° C. on a 12 h light/dark cycle. Animals were randomly grouped (10 mice per group) and assigned to a specific experiment. All animal experiments were performed in accordance with the National Institutes of Health Guidelines under protocols approved by the Institutional Animal Care and Use Committee of North Shore University Hospital and New York University Medical School.
Cecal ligation and puncture (CLP). Cecal ligation and puncture (CLP) was performed as described by (Wichterman et al., J. Surg. Res. (1980) 29(2):189-201). Briefly, mice were anesthetized with 20 mg/ml xylazine intramuscularly at a dose of […], a midline incision was performed, and the cecum was isolated. A 6-0 prolene suture ligature was placed at a level 5.0 mm from the cecal tip away from the ileocecal valve. The ligated cecal stump was then punctured once with a 22-gauge needle, and stool extruded (1 mm) to ascertain patency of the puncture site. […] Mortality was recorded for up to 1 week after the procedure; survivors were followed for 3 weeks to ensure no late mortalities had occurred. […]

[4] = tested on: lethal endotoxemia (E. coli lipopolysaccharide); assay: Lethal endotoxemia (LPS) in mice: survival and morbidity; format: in vivo, Balb/C mice; details: for survival: P<0.005
Procedure: as §3, §1
Ethyl Pyruvate Solution: Ethyl pyruvate was prepared in solution with sodium (130 mM), potassium (4 mM), calcium (2.7 mM), chloride (130 mM), and ethyl pyruvate (28 mM); pH 7.0). For injections in mice solutions were diluted so that each injection volume was 0.4 ml per dose.
The initial evaluation of ethyl pyruvate (EP) was conducted as a therapeutic solution in lethal systemic inflammation in a standard model of murine endotoxemia. Balb/c mice received a single dose of ethyl pyruvate (40 mg ethyl pyruvate/kg mouse) 30 minutes before the onset of lethal endotoxemia (E. coli lipopolysaccharide, LPS, 5 mg LPS/kg, i.p.). Ethyl pyruvate pretreatment protected BALB/c mice from lethal endotoxemia (ethyl pyruvate survival=20/20 versus vehicle control survival=3/20; P<0.005) (FIG. 3A).
The therapeutic efficacy of the delayed administration of ethyl pyruvate after the onset of endotoxemia was assessed. Ethyl pyruvate dosing in endotoxemic mice was initiated 4 hours after the onset of endotoxemia, when clinical signs were already evident, including diarrhea, piloerection, and depressed spontaneous activity (FIG. 4A).

Q: With `CCOC(=O)C(C)=O` [ethyl pyruvate] as the compound, how does the “serum TNF” value (TNF [1]; pretreatment 40 mg/kg 30 min before LPS 5 mg/kg i.p., vehicle printed 17+/−4, P<0.05) read?
A: 39+−6 ng TNF/ml

Q: What about the “release of serum TNF (in words)” value (TNF [1]; pretreatment 40 mg/kg) of the same compound?
A: significantly attenuates the release of serum TNF

Q: What about the “synthesis of TNF at the highest doses tested” value (TNF [2]; LPS-stimulated RAW 264.7 cells, highest doses of ethyl pyruvate) of the same compound?
A: not completely inhibited

Q: And the EC50 (TNF [2]; Mus musculus, RAW264.7, RAW 264.7 cells stimulated with 50 or 100 ng/ml LPS, conditioned media, read-out: concentration that suppressed 50% of the TNF response (EC50))?
A: 3.4 mM

Q: And the survival ([3]; 40 mg/kg i.p. beginning 24 hours after onset of peritonitis, three weeks of monitoring, vehicle 5/17, P<0.005)?
A: 14/17

Q: And the protection against death ([3]; lower ethyl pyruvate doses, beginning 24 hours after onset of peritonitis)?
A: failed to confer significant protection against death

Q: What about the “clinical signs of morbidity” value ([4]; delayed treatment beginning 4 hours after LPS) of the same compound?
A: reversed clinical signs of morbidity

Q: And the survival ([4]; delayed treatment: 40 mg/kg i.p. at 4, 8, 12, 24 and 30 hours after LPS, vehicle 5/20)?
A: 17/20

Q: And the “clinical manifestations of endotoxin morbidity” value ([4]; pretreatment 40 mg/kg 30 minutes before LPS 5 mg/kg i.p.)?
A: significantly prevented the clinical manifestations of endotoxin morbidity

Q: And the survival ([4]; pretreatment: single dose 40 mg/kg i.p. 30 minutes before LPS 5 mg/kg i.p., vehicle 3/20)?
A: 20/20

Q: What about the survival ([4]; pretreatment: single dose 40 mg/kg i.p. 30 minutes before LPS 5 mg/kg i.p., vehicle 3/20, listed as EP) of the same compound?
A: conferred significant protection against lethality
